Laboratory results taken from publication PMC2737686 (Virology, 2009).
Peptide text beside a SMILES is read from it.

Experiments:
[1] = tested on: double-stranded DNA fragment; assay: Filter-binding assay of peptides, double-stranded DNA; details: 32P-labeled double-stranded DNA fragment
DHBV core gene RNA = assay: Filter-binding assay of peptides, DHBV core gene RNA; parameters: species or system Duck hepatitis B virus; details: 32P-labeled DHBV core gene RNA
ε RNA = assay: Filter-binding assay of peptides, ε RNA; parameters: species or system Duck hepatitis B virus; details: peptide 10 pMol to 0.3 pMol on filter; 32P-labeled ε RNA

CC[C@H](C)[C@H](NC(=O)[C@H](CCCNC(=N)N)NC(=O)[C@H](CC(N)=O)NC(=O)[C@@H]1CCCN1C(=O)[C@H](Cc1c[nH]c2ccccc12)NC(=O)[C@@H](N)CO)C(=O)N[C@H](C(=O)NCC(=O)N[C@@H](CCCCN)C(=O)N[C@@H](CC(C)C)C(=O)N[C@@H](Cc1ccccc1)C(=O)N[C@@H](CC(C)C)C(=O)N[C@H](C(=O)N[C@@H](CC(=O)O)C(=O)N[C@@H](CCCCN)C(=O)N[C@@H](CC(N)=O)C(=O)N[C@@H](CO)C(=O)N[C@@H](CCCNC(=N)N)C(=O)N[C@@H](CC(N)=O)C(=O)N[C@H](C(=O)N[C@@H](CCC(=O)O)C(=O)N[C@@H](CCC(=O)O)C(=O)N[C@@H](C)C(=O)N[C@@H](CCCNC(=N)N)C(=O)N[C@@H](CC(C)C)C(=O)N[C@H](C(=O)N[C@H](C(=O)N[C@@H](CC(=O)O)C(=O)N[C@@H](Cc1ccccc1)C(=O)N[C@@H](CO)C(=O)N[C@@H](CCC(N)=O)C(=O)N[C@@H](Cc1ccccc1)C(=O)N[C@@H](CO)C(=O)N[C@@H](CCCCN)C(=O)NCC(=O)N[C@@H](CCCCN)C(=O)O)C(C)C)C(C)C)[C@@H](C)O)C(C)C)[C@@H](C)O [RT1C] (H-SWPNRITGKLFLVDKNSRNTEEARLVVDFSQFSKGK-OH; N-terminus and C-terminus assumed)
Binding to double-stranded DNA [1]: able to bind to an irrelevant RNA derived from the DHBV core gene and to a double-stranded DNA fragment
Binding to irrelevant DHBV core gene RNA (DHBV core gene RNA): able to bind to an irrelevant RNA derived from the DHBV core gene
RNA binding to ε, relative (peptide titration) (ε RNA): bound RNA less well than the T3B peptide
